# In article PMC5656653, “Evaluation of Ga-DOTA-(D-Asp)n as bone imaging agents: D-aspartic acid peptides as carriers to bone” (Scientific Reports, 2017):
# Where a SMILES comes first, the peptide text is derived from it. [ ]: non-standard residue; d: D form. The star is where a group is joined. DOTA = O=C(O)CN1CCN(CC(=O)O)CCN(CC(=O)*)CCN(CC(=O)O)CC1
# Experiment: Biodistribution experiments in normal mice after i.v. injection
# Type: in vivo
# Details: mouse, in vivo, iv; for tissue uptake dose at 10 min / tissue uptake dose at 1 h / tissue uptake dose at 3 h: male, ddY, total radioactivity, Biodistribution of radioactivity
# Protocol: Experiments with animals were conducted in strict accordance with the Guidelines for the Care and Use of Laboratory Animals of Kanazawa University. The animal experimental protocols used were approved by the Committee on Animal Experimentation of Kanazawa University (Permit Number: AP-132633). Biodistribution experiments were performed after intravenous administration of each diluted tracer solution (37–740 kBq/100 μL) to 6-week-old male ddY mice (27–32 g, Japan SLC, Inc., Hamamatsu, Japan). Four or five mice at each time point after the administration of each compound were sacrificed by decapitation at 10, 60, and 180 min post-injection. Tissues of interest were taken and weighed. Complete left femurs were isolated as representative bone samples, radioactivity was determined using gamma counters (AccuFLEX γ ARC-8001 in the case of ^18F, Hitachi, Ltd.), and background counts and physical decay were corrected during counting.
smiles,measurement,setting,value
"O=C(O)C[C@@H](NC(=O)[C@@H](CC(=O)O)NC(=O)[C@@H](CC(=O)O)NC(=O)[C@@H](CC(=O)O)NC(=O)[C@@H](CC(=O)O)NC(=O)[C@@H](CC(=O)O)NC(=O)[C@@H](CC(=O)O)NC(=O)[C@@H](CC(=O)O)NC(=O)CN1CCN(CC(=O)O)CCN(CC(=O)O)CCN(CC(=O)O)CC1)C(=O)O [^67Ga-DOTA-(D-Asp)8, metal not drawn] ({DOTA}-[dD][dD][dD][dD][dD][dD][dD][dD]-OH)",tissue uptake dose at 10 min,Blood,1.94 %ID
same,tissue uptake dose at 1 h,Blood,0.33 %ID
same,tissue uptake dose at 3 h,Blood,0.13 %ID
same,tissue uptake dose at 10 min,Bone (Femur),9.86 %ID
same,tissue uptake dose at 1 h,Bone (Femur),11.6 %ID
same,tissue uptake dose at 3 h,Bone (Femur),12.5 %ID
same,tissue uptake dose at 10 min,Brain,0.05 %ID
same,tissue uptake dose at 1 h,Brain,0.01 %ID
same,tissue uptake dose at 3 h,Brain,0.01 %ID
same,tissue uptake dose at 10 min,Heart,0.63 %ID
same,tissue uptake dose at 1 h,Heart,0.14 %ID
same,tissue uptake dose at 3 h,Heart,0.05 %ID
same,tissue uptake dose at 10 min,Kidney,12.8 %ID
same,tissue uptake dose at 1 h,Kidney,2.49 %ID
same,tissue uptake dose at 3 h,Kidney,1.23 %ID
same,tissue uptake dose at 10 min,Large-intestine,0.26 %ID
same,tissue uptake dose at 1 h,Large-intestine,0.05 %ID
same,tissue uptake dose at 3 h,Large-intestine,0.08 %ID
same,tissue uptake dose at 10 min,Liver,0.46 %ID
same,tissue uptake dose at 1 h,Liver,0.14 %ID
same,tissue uptake dose at 3 h,Liver,0.11 %ID
same,tissue uptake dose at 10 min,Lung,1.34 %ID
same,tissue uptake dose at 1 h,Lung,0.26 %ID
same,tissue uptake dose at 3 h,Lung,0.1 %ID
same,tissue uptake dose at 10 min,Muscle,0.57 %ID
same,tissue uptake dose at 1 h,Muscle,0.15 %ID
same,tissue uptake dose at 3 h,Muscle,0.14 %ID
same,tissue uptake dose at 10 min,Pancreas,0.57 %ID
same,tissue uptake dose at 1 h,Pancreas,0.11 %ID
same,tissue uptake dose at 3 h,Pancreas,0.08 %ID
same,tissue uptake dose at 10 min,Small-intestine,0.39 %ID
same,tissue uptake dose at 1 h,Small-intestine,0.13 %ID
same,tissue uptake dose at 3 h,Small-intestine,0.1 %ID
same,tissue uptake dose at 10 min,Spleen,0.42 %ID
same,tissue uptake dose at 1 h,Spleen,0.16 %ID
same,tissue uptake dose at 3 h,Spleen,0.09 %ID
same,tissue uptake dose at 10 min,Stomach,0.34 %ID
same,tissue uptake dose at 1 h,Stomach,0.04 %ID
same,tissue uptake dose at 3 h,Stomach,0.1 %ID
same,Accumulation of radioactivity in bone (in words),,high accumulation and retention of radioactivity in bone
